# Several values for one entry are separate records, joined by “and”; a condition that tells them apart may be missing. Identical values can stand only once. Activity calls are given as the source filed them.
# Experiments:
# [1] = target: T1, Tyrosine-protein phosphatase non-receptor type 7 (Homo sapiens, UniProt P35236); assay: HePTP tyrosine phosphatase activity blockers – biochemical, absorbance, leukemia target, primary screen (AID 521); type: functional
# T1 sequence (P35236 whole entry): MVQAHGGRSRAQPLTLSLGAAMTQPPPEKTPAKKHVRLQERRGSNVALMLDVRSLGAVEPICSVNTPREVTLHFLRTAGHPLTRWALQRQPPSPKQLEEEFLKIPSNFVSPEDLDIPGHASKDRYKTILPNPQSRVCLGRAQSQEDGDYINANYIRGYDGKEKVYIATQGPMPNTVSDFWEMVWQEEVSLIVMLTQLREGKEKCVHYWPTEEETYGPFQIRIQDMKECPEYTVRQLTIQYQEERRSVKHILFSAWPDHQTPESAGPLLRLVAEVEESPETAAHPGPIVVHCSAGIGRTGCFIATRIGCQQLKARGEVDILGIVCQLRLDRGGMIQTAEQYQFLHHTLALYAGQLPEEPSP
# [2] = target: T2, NADPH oxidase 1 (Homo sapiens, UniProt Q9Y5S8); assay: Late-stage luminescence-based cell-based dose response assay to identify inhibitors of NADPH oxidase 1 (NOX1): Synthesized analogs 3.; type: functional
# T2 sequence (Q9Y5S8 whole entry): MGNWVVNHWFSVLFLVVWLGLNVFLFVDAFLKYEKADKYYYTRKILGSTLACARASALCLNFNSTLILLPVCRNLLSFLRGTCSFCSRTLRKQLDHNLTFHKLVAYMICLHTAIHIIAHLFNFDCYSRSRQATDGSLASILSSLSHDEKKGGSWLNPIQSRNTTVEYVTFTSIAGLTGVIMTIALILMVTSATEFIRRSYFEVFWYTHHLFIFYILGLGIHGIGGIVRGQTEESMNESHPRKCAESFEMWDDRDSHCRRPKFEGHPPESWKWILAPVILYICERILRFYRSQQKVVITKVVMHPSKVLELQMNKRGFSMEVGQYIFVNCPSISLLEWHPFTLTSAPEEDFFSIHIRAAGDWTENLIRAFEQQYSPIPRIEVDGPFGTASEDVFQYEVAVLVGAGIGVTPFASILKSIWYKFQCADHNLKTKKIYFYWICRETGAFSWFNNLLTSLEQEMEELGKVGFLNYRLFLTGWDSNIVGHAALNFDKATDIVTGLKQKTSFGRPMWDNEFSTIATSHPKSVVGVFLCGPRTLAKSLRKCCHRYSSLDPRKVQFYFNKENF
# [3] = target: Voltage-gated inwardly rectifying potassium channel KCNH2 (Homo sapiens, UniProt Q12809); assay: concentration-dependent hERG rescue from blockers – cell-based, thallium flux, dose response (AID 2121); type: ADME
# [4] = target: 14-3-3 protein gamma (Homo sapiens, UniProt P61981); assay: modulators of 14-3-3 gamma client binding – dose response (AID 711); type: functional
# [5] = IC50 of insulin release inhibition, rat insulinoma INS-1E line, 5 mM glucose, cell-based (AID 1117331); type: functional
# [6] = glucagon-like peptide-1 release potency in STC-1, concentration-response, half-maximal inhibitory concentration in the STC-1 line (AID 1117345); type: functional, cell-based
# [7] = Potency on glucagon-like peptide 1 release, dose-response in NCI-H716 cell line, half maximal inhibitory concentration (AID 1117344); type: functional, cell-based
# [8] = HIV-1 Vif–A3G interaction blockers – biochemical, TR-FRET, GST-Vif 1-94, biotin-A3G peptide, dose response retest, primary screen (AID 1117319); type: functional;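 also: TR-FRET signal of purified GST-Vif binding a biotinylated A3G peptide; inhibitors lower the FRET signal by blocking Vif and A3G binding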
# [9] = target: T3, Leucine aminopeptidase (Plasmodium falciparum 3D7, UniProt Q8IL11); assay: P. falciparum M17LAP inhibitors, primary screen, biochemical, fluorogenic H-Leu-NHMec substrate, 1536-well (AID 1619); type: functional
# T3 sequence (Q8IL11 whole entry): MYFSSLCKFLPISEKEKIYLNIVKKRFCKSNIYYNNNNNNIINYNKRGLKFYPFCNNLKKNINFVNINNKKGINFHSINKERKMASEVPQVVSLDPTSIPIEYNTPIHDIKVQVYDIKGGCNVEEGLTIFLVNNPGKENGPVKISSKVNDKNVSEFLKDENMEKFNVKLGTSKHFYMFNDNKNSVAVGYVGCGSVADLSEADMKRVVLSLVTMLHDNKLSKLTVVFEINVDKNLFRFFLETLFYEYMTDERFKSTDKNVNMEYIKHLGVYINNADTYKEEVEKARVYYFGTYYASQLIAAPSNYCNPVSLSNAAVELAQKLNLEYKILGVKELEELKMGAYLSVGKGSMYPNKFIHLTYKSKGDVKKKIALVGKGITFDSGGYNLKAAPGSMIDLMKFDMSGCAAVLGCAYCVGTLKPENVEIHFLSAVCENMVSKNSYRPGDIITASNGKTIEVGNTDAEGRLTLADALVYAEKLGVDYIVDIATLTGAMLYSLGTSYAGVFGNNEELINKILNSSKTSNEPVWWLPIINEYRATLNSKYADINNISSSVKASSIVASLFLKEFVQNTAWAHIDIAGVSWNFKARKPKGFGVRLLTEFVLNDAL
# [10] = target: T4, Rac GTPase-activating protein 1 (Homo sapiens, UniProt Q9H0H5); assay: blockers of MgcRacGAP-driven Rac1 GTP hydrolysis – biochemical, ADP Hunter fluorescence, primary and confirmatory, confirmation (AID 624330); type: functional
# T4 sequence (Q9H0H5 whole entry): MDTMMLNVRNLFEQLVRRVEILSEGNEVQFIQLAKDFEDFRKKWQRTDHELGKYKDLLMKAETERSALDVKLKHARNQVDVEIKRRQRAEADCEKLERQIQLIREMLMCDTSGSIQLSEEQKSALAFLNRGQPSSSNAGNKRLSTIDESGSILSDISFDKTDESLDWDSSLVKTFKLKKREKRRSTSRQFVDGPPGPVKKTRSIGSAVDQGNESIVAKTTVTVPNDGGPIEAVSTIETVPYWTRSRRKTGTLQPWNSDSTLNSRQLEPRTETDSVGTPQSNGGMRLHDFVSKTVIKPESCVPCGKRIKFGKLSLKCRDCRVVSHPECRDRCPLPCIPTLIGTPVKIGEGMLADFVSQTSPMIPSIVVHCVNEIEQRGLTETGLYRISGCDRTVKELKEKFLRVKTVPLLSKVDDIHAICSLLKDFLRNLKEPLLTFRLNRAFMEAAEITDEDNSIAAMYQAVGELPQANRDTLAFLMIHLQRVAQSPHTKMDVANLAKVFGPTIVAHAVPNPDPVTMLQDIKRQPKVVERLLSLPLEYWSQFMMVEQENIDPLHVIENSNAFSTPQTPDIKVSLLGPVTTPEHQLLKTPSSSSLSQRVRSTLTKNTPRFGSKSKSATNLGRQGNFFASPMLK
# [11] = system: P388/ADR; assay: cells; type: functional; details: Mus musculus
# [12] = rise of 4N DNA cells, HeLa – IC50, dose response (AID 1117351); type: functional, cell-based
# [13] = rise of 2N DNA cells, HeLa – IC50, dose response (AID 1117349); type: functional, cell-based
# [14] = target: T5, Sentrin-specific protease 8 (Homo sapiens, UniProt Q96LD8); type: functional
# T5 sequence (Q96LD8 whole entry): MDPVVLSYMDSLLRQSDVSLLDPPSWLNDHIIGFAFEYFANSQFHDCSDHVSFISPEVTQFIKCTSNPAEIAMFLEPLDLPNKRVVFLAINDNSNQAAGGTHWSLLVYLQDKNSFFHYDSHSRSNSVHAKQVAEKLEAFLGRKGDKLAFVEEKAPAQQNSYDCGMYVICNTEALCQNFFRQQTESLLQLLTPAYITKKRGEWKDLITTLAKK
# [15] = system: SN12K1; assay: cells; type: functional; details: Homo sapiens
# [16] = system: INS1; assay: INS-1E survival protection against cytokine death – cell-based, luminescence, retest, dose response (AID 449756); type: functional; details: Rattus norvegicus;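 also: cell death triggered by IL-1 beta plus TNF-alpha plus IFN-gamma mixture; protective hits raise ATP signal compared with cytokine alone wells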
# [17] = target: T5, Sentrin-specific protease 8; type: functional; remark: listed apart in the source
# [18] = system: P388; assay: cells; type: functional; details: Mus musculus
# [19] = target: T6, DNA repair protein RAD52 homolog (Homo sapiens, UniProt P43351); type: functional, biochemical
# T6 sequence (P43351 whole entry): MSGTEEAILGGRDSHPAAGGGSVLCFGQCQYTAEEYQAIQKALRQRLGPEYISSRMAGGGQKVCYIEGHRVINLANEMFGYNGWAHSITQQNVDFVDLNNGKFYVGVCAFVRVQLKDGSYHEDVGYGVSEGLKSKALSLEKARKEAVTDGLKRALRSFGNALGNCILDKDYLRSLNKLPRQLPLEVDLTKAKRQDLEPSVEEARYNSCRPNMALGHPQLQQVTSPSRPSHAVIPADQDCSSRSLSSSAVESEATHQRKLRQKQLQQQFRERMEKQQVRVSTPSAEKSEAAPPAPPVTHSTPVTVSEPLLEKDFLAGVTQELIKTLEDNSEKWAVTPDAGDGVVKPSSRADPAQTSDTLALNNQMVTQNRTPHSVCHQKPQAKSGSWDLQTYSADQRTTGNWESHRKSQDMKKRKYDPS
# Voltage-gated inwardly rectifying potassium channel KCNH2, sequence (Q12809 whole entry): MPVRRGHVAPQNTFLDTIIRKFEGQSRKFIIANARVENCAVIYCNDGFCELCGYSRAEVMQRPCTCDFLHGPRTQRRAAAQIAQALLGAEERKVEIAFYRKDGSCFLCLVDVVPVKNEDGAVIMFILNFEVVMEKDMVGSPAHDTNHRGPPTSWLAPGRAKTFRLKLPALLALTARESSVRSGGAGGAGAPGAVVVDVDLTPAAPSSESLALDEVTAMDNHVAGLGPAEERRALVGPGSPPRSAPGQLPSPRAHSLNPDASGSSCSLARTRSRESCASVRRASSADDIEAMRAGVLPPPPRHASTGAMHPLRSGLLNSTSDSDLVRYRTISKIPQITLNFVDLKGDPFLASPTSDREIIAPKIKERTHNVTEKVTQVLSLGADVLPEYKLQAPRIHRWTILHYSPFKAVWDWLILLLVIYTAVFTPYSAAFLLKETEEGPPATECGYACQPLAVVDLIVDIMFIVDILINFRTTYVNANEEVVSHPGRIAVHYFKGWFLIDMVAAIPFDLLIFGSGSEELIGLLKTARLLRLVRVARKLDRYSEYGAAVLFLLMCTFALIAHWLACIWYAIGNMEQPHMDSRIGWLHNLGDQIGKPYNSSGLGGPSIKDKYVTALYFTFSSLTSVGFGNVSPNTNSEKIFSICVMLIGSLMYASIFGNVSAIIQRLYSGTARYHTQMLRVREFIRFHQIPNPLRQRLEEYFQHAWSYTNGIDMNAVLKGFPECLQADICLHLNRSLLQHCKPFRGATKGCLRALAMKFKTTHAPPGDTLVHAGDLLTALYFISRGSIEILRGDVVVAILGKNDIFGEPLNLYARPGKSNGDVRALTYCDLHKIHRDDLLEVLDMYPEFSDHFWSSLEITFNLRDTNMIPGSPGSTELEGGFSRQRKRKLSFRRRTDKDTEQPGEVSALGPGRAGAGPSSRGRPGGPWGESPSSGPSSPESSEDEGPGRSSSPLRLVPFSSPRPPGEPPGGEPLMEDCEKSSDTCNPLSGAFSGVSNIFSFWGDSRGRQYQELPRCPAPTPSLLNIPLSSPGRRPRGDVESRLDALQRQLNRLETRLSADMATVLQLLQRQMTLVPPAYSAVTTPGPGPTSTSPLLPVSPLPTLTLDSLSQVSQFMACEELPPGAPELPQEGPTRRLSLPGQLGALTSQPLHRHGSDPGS
# 14-3-3 protein gamma, sequence (P61981 whole entry): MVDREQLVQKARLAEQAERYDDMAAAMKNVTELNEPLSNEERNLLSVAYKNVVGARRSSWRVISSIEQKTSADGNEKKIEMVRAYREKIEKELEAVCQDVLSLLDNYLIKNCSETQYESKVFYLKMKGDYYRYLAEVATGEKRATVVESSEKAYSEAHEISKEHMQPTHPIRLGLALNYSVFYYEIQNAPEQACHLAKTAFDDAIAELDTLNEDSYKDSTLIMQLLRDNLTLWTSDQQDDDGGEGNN
structure (smiles),measurement,setting,value
Cc1cc(C)cc(OCCCCCNCCO)c1,IC50,[1],> 100 µM (not active)
CN1c2ccccc2Sc2cc(C(=O)c3ccc(N=[N+]=[N-])cc3)ccc21,IC50,[2],> 20 µM (not active)
COc1ccc(C(=O)CC(=O)C(=O)Nc2ccc(Cl)cc2)cc1,EC50,[3],1.74 µM (active)
CCOC(=O)N1CCC(NC(=O)CSCc2nc(-c3ccc(OC)c(OC)c3)oc2C)CC1,IC50,[4],> 50 µM (not active)
O=C(CBr)Nc1ccc(Cl)cc1C(=O)c1ccccc1F,IC50,[5],> 33.3 µM (inactive)
same,IC50,[6],> 40 µM (inactive)
same,IC50,[7],> 40 µM (inactive)
COc1ccc2c(c1OC)C(=O)OC2CC(=O)c1ccc(O)c(O)c1 (centres undefined),IC50,[8],> 100 µM (active)
same,IC50,[9],35.2 µM (active)
same,IC50,[10],56.1 µM (active)
COc1ccc2cc3[n+](cc2c1OC)CCc1cc2c(cc1-3)OCO2 [BERBERINE CHLORIDE],GI50,[11],102 µM (inactive)
same,IC50,[12],> 10 µM (inactive)
same,IC50,[13],> 10 µM (inactive)
same,IC50,[14],7.66 µM (active)
same,GI50,[15],3.93 µM (inactive)
same,AC50,[16],3.25 µM (active)
same,IC50,[17],> 100 µM (inactive)
same,GI50,[18],1.87 µM (inactive)
same,AC50,[19],2.38 µM (active) and 5.69 µM (active)

# From ChEMBL document CHEMBL1201862, “PubChem BioAssay data set” (2004)
